Measured values taken from publication PMC9181887, “In Vitro Antithrombotic, Hematological Toxicity, and Inhibitor Studies of Protocatechuic, Isovanillic, and p-Hydroxybenzoic Acids from Maclura tricuspidata (Carr.) Bur” (Molecules, 2022).

Legend:
[1] = system: human platelet-poor plasma; assay: Recalcification time assay; format: biochemical; settings: for Absorbance after Reaction: 650 nm after 30 min, NC2 0.2094 ± 0.0305; for Half Time at 1/2 Maximum: NC2 740 ± 20 s; for Fold of Half Time: NC2 = 1.00; for plasma coagulation time: 1–20 μg
Procedure: Figure 5 Effect of PA (A), IVA (B), and 4-HA (C) on recalcification time and plasma density. Human platelet-poor plasma was mixed with PA, IVA, and 4-HA dissolved in DMSO in 96-well plates and incubated for 10 min at 37 °C. Thereafter, 100 mM pre-warmed CaCl2 was added to the mixture and absorbance was taken every 60 s at 650 nm for 30 min in a microplate reader. The plasma density was presented as the optical density at 650 nm after 30 min. The half time (s) was presented as reaching a half-maximum absorbance value. NC1, plasma only; NC2, plasma treated with CaCl2; PC, positive control group (1 U heparin); PA1–20, 1–20 μg of PA treated; IVA1–20, 1–20 μg of IVA treated; 4-HA1–20, 1–20 μg of 4-HA treated.
Recalcification time was measured in a 96-well plate, according to a previously described method, with slight modifications. First, 50 μL of human platelet-poor plasma was mixed with 50 μL of the compounds, vehicle as NC2, or 1 U heparin as PC, and incubated at 37 °C for 10 min. Thereafter, 100 mM pre-warmed CaCl2 was added to the mixture and absorbance was measured at 650 nm every 1 min for 30 min using a microplate reader. The plasma density was presented as the absorbance at 650 nm after 30 min. The half time was presented as reaching a half-maximum absorbance value.

human plasma = assay: Coagulation assay, APTT; format: biochemical; settings: for APTT, fold of control / activated partial thromboplastin time (APTT): 100 μg; for activated partial thromboplastin time (APTT): control 39.5 ± 1.5 s, p < 0.01
Procedure: A coagulation assay was performed to evaluate the prolongation potential of the compounds in blood coagulation by measuring APTT, PT, and TT, as previously described. After pretreatment of the compounds with human plasma for 10 min, APTT, PT, and TT were determined by a coagulometer (Thrombostat 1) manufactured by Behnk Elektronik, Germany.

[2] = system: thrombin-activated platelets; assay: Serotonin release assay; format: cell-based; settings: p < 0.05
Procedure: Figure 7 Effect of PA, IVA, and 4-HA on granule secretion. Aliquots of washed platelets pre-treated with or without the compounds for 5 min were stimulated with 0.25 U/mL thrombin at 37 °C for 5 min. After stimulation, the platelets were centrifuged, and the supernatants were collected. Using these supernatants, ATP (A) or serotonin (B) release was determined according to the manufacturer’s instructions. Each value is the mean ± SD of triplicate measurements. # p < 0.01, compared to each control groups. * p < 0.05 and ** p < 0.01, compared to only thrombin-treated control groups. Thrombin, thrombin treated only; PA10-100, 10–100 μg of PA treated; IVA10-100, 10–100 μg of IVA treated; 4-HA10-100, 10–100 μg of 4-HA treated.
Aliquots of washed platelets (250 × 10^6/mL) pre-treated with the compounds for 5 min were activated with 0.25 U/mL of thrombin in the presence of 1 mM of Ca^2+ for 5 min at 37 °C, according to a previously described method, with slight modifications. After stimulation, the reaction solution was centrifuged at 4 °C and 12,000× g for 5 min, and the supernatant was collected for subsequent use. Serotonin release was determined using a serotonin enzyme-linked immunosorbent assay kit (Labor Diagnostika Nord GmbH & Co., Nordhorn, Germany), according to the manufacturer’s instructions.

Row | SMILES | half-life and plasma coagulation time [1] | Absorbance after Reaction ([1]; 1 μg) | Absorbance after Reaction ([1]; 2 μg) | Absorbance after Reaction ([1]; 5 μg) | Absorbance after Reaction ([1]; 10 μg) | Absorbance after Reaction ([1]; 20 μg) | plasma coagulation time [1] | APTT, fold of control (human plasma) | activated partial thromboplastin time (APTT) (human plasma) | thrombin-stimulated serotonin secretion ([2]; 100 μg) | Half Time at 1/2 Maximum ([1]; 1 μg) | Fold of Half Time ([1]; 1 μg) | further results
1 | O=C(O)c1ccc(O)cc1 [4-HA, 4-hydroxybenzoic acid] | significant delay | 0.1424 ± 0.0122 | 0.1086 ± 0.0083 | 0.0866 ± 0.0051 | 0.0233 ± 0.0014 | 0.0205 ± 0.0029 | partially prolonged | 1.53 fold | 60.3 ± 5.6 s | inhibited significantly | – | – | Half Time at 1/2 Maximum ([1]; 2 μg): 950 ± 70 s; Fold of Half Time ([1]; 2 μg): 1.28 ± 0.09
2 | COc1ccc(C(=O)O)cc1O [IVA, isovanillic acid] | – | 0.1882 ± 0.0097 | 0.1732 ± 0.0106 | 0.1575 ± 0.0052 | 0.1377 ± 0.0071 | 0.0462 ± 0.0035 | partially prolonged | 1.70 fold | 67.0 ± 4.0 s | – | 510 ± 25 s | 0.69 ± 0.03 | Half Time at 1/2 Maximum ([1]; 5 μg): 615 ± 20 s; Fold of Half Time ([1]; 5 μg): 0.83 ± 0.03; Half Time at 1/2 Maximum ([1]; 10 μg): 355 ± 30 s; Fold of Half Time ([1]; 10 μg): 0.48 ± 0.04; final plasma density ([1]; after 1800 s): significantly decreased; initial response of plasma coagulation (fold of half time) ([1]; range over doses, promoted (shorter half time)): 0.48–0.83 fold; APTT, dependence on concentration (human plasma): increased APTT in a concentration-dependent manner; thrombin-stimulated serotonin secretion ([2]; 50–100 μg): inhibited significantly
3 | O=C(O)c1ccc(O)c(O)c1 [PA, protocatechuic acid] | significant delay | 0.1898 ± 0.0227 | 0.0201 ± 0.0012 | 0.0044 ± 0.0009 | −0.0047 ± 0.0004 | −0.0103 ± 0.0011 | – | 1.33 fold | 52.5 ± 4.4 s | inhibited significantly | 1220 ± 90 s | 1.65 ± 0.12 | plasma coagulation for 1800 s ([1]; 5–20 μg): completely delayed
